Results taken from publication PMC12081870 (Communications Biology, 2025).
“And” between values parts separate entries of the source, which are not always exact repeats. Identical values can stand only once.

Legend:
Sla1 third SH3 domain = biological target: Sla1 third SH3 domain; design: method as in PMID 17244534; conditions: third SH3 domain of Sla1; ref [10]; read-out: binding to ubiquitin affinity; cited from earlier work
yeast cells = assay: Lucifer yellow bulk phase endocytosis; format: cell-based, Saccharomyces cerevisiae; conditions: 90 minutes at 30°C, vs wild type
Procedure: (§1) Supplementary Information.
(§2) Methods used in Supplementary Data
(§3) Yeast strains, growth and staining
(§4) Yeast plasmids used in this study are listed in Supplementary table 1 and yeast strains used in Supplementary table 2. Unless stated otherwise, cells were grown with rotary shaking at 30°C in liquid YPD medium (1% yeast extract, 2% Bacto-peptone, 2% glucose supplemented with 40 μg/ml adenine) or in synthetic medium (0.67% yeast nitrogen base, 2% glucose) with appropriate supplements. Growth assays used solid medium with 2% agar added to above. All strains carrying fluorescent tags have growth properties similar to isogenic control strains with the exception of strains carrying dual reporters where lifetimes were longer for both wild type and mutant strains (in Figure 9D). Point mutations in LAS17 were generated using site directed mutagenesis (Agilent). DNA cassettes carrying mutations for integration were transformed into KAY1801. Mutant colonies were counter-selected on minimal medium, containing 0.005% uracil and 0.1% 5’-Fluoroorotic Acid (5-FOA; Melford labs). […]
(§5) expressing strains on plates on which a disc carrying 10 µl of latrunculin-A of varying concentrations was placed (white disc). […] They were then scored according to the extent of uptake and categorised according to the key shown. >100 cells were visualised for each strain in each of 3 independent experiments. […]

las17 P387A yeast strain = assay: Growth of yeast, temperature sensitivity; format: cell-based, Saccharomyces cerevisiae; conditions: range of temperatures, sole Las17 in cells
Procedure: as §1, §2, §3, §4, §5

[1] = tested on: Las17 and las17 P387A expressing yeast strains; assay: Latrunculin-A halo assay on yeast; format: cell-based, Saccharomyces cerevisiae; conditions: sole Las17 in cells, words
Procedure: as §1, §2, §3, §4, §5

[2] = tested on: F-actin organisation in yeast cells; assay: Rhodamine-phalloidin staining, actin organisation in cells; format: cell-based, Saccharomyces cerevisiae; conditions: vs wild type cells
Procedure: as §1, §2, §3, §4, §5

[3] = tested on: Las17-GFP and Arc15-mCherry; assay: Dual-reporter lifetimes, Las17-GFP and Arc15-mCherry co-localisation; format: cell-based, Saccharomyces cerevisiae; design: lifetime, GFP alone / lifetime, GFP and RFP / lifetime, RFP: unit not given here
Procedure: A size bar for each set of kymographs is shown on the upper right of each set. For (A) and (C) size bar is 100 nm and for B is 200 nm. Error bars are standard deviation. […] The site of interest is labelled in the first two time panels with a white arrow. Exposure 0.5 sec with 1 second time lapse. 120 s recorded. […] Error bars are standard deviation.
Individual spots were analysed for lifetimes and behaviours.
Yeast strains used in this study are listed in Supplementary table 2 and plasmids used in Supplementary table 1. Unless stated otherwise, cells were grown with rotary shaking at 30 °C in liquid YPD medium (1% yeast extract, 2% Bacto-peptone, 2% glucose supplemented with 40 μg/ml adenine) or in synthetic medium (0.67% yeast nitrogen base, 2% glucose) with appropriate supplements. […] DNA cassettes carrying mutations for integration were transformed into KAY1801. Mutant colonies were counter-selected on minimal medium, containing 0.005% uracil and 0.1% 5’-Fluoroorotic Acid (5-FOA; Melford laboratories). Allele exchange, in growing Ura3^-, 5-FOA resistant colonies, was confirmed by PCR and sequencing.
For live-cell imaging, cells expressing tagged proteins were visualised after growing to early log phase. Analysis was carried out at room temperature (22 °C). […] Images were taken simultaneously on separate scientific complementary metal oxide semiconductor (sCMOS) cameras (30 msec exposure). Seven 250 nm sections were acquired every 0.5 sec (241 time points). The stacks were then deconvolved and processed, using SoftWorx. Protein localisation and lifetime was analysed from those projections. Fiji software was used to assemble movies and kymographs, to track and record behaviour of individual spots. Graphs show mean ± SD. […] Where appropriate data was tested for normal distribution using Graphpad Prism software, and then subjected to the appropriate test as described in the methods for each experiment type.

[4] = tested on: Arc15-mCherry (Arp2/3 complex); assay: Lifetime of Arc15-mCherry patches at endocytic sites; format: cell-based, Saccharomyces cerevisiae; conditions: las17 P387A background vs wild type; wt n = 156, P387A n = 132
Procedure: (§6) For live-cell imaging, cells expressing tagged proteins were visualised after growing to early log phase. Analysis was carried out at room temperature (22 °C). Time-lapse of wild-type and mutated Las17-GFP was acquired using OMX DeltaVision V4 and a 60×/1.42 NA objective. Images were taken simultaneously on separate scientific complementary metal oxide semiconductor (sCMOS) cameras (30 msec exposure). Seven 250 nm sections were acquired every 0.5 sec (241 time points). The stacks were then deconvolved and processed, using SoftWorx. Protein localisation and lifetime was analysed from those projections. Fiji software was used to assemble movies and kymographs, to track and record behaviour of individual spots. Graphs show mean ± SD. Sample size Fig. 9A wt n = 67, P387A n = 52; 9B wt n = 183, P387A n = 96; 9 C wt n = 156, P387A n = 132. Where appropriate data was tested for normal distribution using Graphpad Prism software, and then subjected to the appropriate test as described in the methods for each experiment type.
(§7) Lifetime and behaviour of cell reporter proteins using fluorescence microscopy: Graphs show mean ± SD. Sample size Fig. 9A wt n = 67, P387A n = 52; 9B wt n = 183, P387A n = 96; 9 C wt n = 156, P387A n = 132. Unpaired Mann Whitney statistical analysis of patch lifetimes was carried out using Graphpad Prism software, **** denotes two tailed P value of <0.0001.

Abp1 = assay: Lifetime of Abp1-GFP patches at endocytic sites; format: cell-based, Saccharomyces cerevisiae; conditions: las17 P387A background vs wild type; wt n = 183, P387A n = 96
Procedure: as §6, §7

[5] = Las17-GFP / Arc15-mCherry dual-label strain
[6] = sheet Fig9E, individual endocytic patches, one per cell

| Substance | Kd (Sla1 third SH3 domain) | bulk phase endocytosis (yeast cells) | growth (las17 P387A yeast strain) | sensitivity to latrunculin-A [1] | actin organisation in cells [2] | duration of co-localization of Las17-GFP and Arc15-mCherry [3, 5] | time of Arc15-mCherry alone after Las17 disassembly [3, 5] | time of Las17 at the site before Arc15 is recruited [3, 5] | lifetime, GFP alone [3, 6] | lifetime, GFP and RFP [3, 6] | lifetime, RFP [3, 6] | lifetime of Arc15 patches [4] | lifetime of Abp1 patches (Abp1) |
| --- | --- | --- | --- | --- | --- | --- | --- | --- | --- | --- | --- | --- | --- |
| ubiquitin | 39 µM |  |  |  |  |  |  |  |  |  |  |  |  |
| las17 P387A: full-length Las17 with P387A, integrated in yeast in place of wild type LAS17 |  | slower than in wild type cells | able to support growth across a range of temperatures | increase in sensitivity to latrunculin-A | less well polarised | 28 s | 15 s | about 40 s | 30 and 22 and 44 and 66 | 46 and 78 and 88 | 62 and 92 and 108 | increased lifetime | increased lifetime |
